This note sets out measurements from patent US20240109853A1 (Shanghai Yao Yuan Biotechnology Co., Ltd., priority 2020, published 2024).

In general, IC50 refers to the concentration at which inhibition is half-maximal. Read a high IC50 as lower potency.

In this test the target is ALPK1 (Homo sapiens (Human), UniProt Q96QP1). The experiment in a line: ALPK1 in vitro kinase assay (HTRF of TIFA phosphorylation). Format: biochemical.
Where [1] appears, read: ALPK1 2 nM, TIFA substrate, ADP-Heptose activator, HTRF readout.

Like-named read-outs stand apart in the source and are kept apart here.

Chain of ALPK1 (Q96QP1 whole entry): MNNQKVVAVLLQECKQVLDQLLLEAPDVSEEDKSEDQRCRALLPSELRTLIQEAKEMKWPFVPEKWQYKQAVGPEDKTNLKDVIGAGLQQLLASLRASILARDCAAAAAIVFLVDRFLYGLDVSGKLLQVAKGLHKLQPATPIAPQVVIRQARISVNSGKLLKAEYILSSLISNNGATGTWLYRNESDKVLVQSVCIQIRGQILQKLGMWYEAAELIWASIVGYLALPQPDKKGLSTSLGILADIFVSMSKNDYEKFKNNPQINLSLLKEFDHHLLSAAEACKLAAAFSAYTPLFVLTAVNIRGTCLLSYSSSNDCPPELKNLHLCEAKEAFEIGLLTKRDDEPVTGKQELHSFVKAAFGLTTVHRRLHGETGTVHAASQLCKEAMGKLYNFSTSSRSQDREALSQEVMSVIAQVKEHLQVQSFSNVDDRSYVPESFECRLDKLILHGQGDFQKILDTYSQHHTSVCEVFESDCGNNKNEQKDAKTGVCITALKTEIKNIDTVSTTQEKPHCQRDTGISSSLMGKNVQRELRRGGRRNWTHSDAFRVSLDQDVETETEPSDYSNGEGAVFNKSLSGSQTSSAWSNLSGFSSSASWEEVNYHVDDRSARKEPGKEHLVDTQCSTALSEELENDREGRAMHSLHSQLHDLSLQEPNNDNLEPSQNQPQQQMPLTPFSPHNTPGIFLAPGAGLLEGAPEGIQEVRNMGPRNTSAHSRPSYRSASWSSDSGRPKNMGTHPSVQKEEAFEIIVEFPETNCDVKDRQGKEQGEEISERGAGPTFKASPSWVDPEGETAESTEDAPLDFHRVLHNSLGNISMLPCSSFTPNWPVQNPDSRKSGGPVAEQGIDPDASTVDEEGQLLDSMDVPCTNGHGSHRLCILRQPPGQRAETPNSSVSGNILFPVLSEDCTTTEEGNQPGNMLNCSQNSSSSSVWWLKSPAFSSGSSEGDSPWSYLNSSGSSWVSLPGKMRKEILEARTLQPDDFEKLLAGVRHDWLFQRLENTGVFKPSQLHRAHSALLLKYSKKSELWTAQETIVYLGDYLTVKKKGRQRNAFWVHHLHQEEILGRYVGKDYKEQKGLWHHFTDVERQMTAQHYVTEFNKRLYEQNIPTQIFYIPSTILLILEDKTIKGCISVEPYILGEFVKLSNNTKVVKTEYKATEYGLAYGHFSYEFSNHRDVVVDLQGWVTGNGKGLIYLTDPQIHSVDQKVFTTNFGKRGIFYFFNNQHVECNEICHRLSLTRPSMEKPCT

Consider `C#CC(C)(c1ccc(Cl)cc1)c1csc(NC(=O)c2c(F)cc(N3CCNC(CO)C3)cc2F)n1` (centres unmarked) [Example B083, N-(4-(2-(4-chlorophenyl)but-3-yn-2-yl)thiazol-2-yl)-2,6-difluoro-4-(3-(hydroxymethyl)piperazin-1-yl)benzamide], for which 78 nM corresponded to half-maximal inhibition under setting [1] (IC50).

`COc1ccc(C(C)(C)c2csc(NC(=O)NCc3ccc(N4CCC(N)C4)nc3)n2)cc1` (centres unmarked) [Example A199, 1-((6-(3-aminopyrrolidin-1-yl)pyridin-3-yl)methyl)-3-(4-(2-(4-methoxyphenyl)propan-2-yl)thiazol-2-yl)urea] had an IC50 of 34 nM. `COCC(C)(c1ccc(OC)cc1)c1csc(NC(=O)c2c(F)cc(N3CCNCC3)cc2F)n1` (centres unmarked) [Example C021, 2,6-difluoro-N-(4-(1-methoxy-2-(4-methoxyphenyl)propan-2-yl)thiazol-2-yl)-4-(piperazin-1-yl)benzamide] gave an IC50 under setting [1] of 44 nM. On the same count and under the same terms, in the case of `COCC(C)(c1ccccc1)c1csc(NC(=O)c2c(F)cc(N3CCNCC3)cc2F)n1` (centres unmarked) [Example C004, 2,6-difluoro-N-(4-(1-methoxy-2-phenylpropan-2-yl)thiazol-2-yl)-4-(piperazin-1-yl)benzamide] it was 22 nM. For `C#CC(C)(c1ccc(Cl)cc1)c1csc(NC(=O)c2ccc(N3CCNCC3)cc2)n1` (centres unmarked) [Example B062, N-(4-(2-(4-chlorophenyl)but-3-yn-2-yl)thiazol-2-yl)-4-(piperazin-1-yl)benzamide], the IC50 under setting [1] was found to be 12 nM. Still for that read-out and setting: the same measure for `COc1ccc(C(C)(C)c2csc(NC(=O)c3ccc(N4CCC(N(C)C)C4)nc3)n2)cc1` (centres unmarked) [Example B010, 6-(3-(dimethylamino)pyrrolidin-1-yl)-N-(4-(2-(4-methoxyphenyl)propan-2-yl)thiazol-2-yl)nicotinamide]: 187 nM; for `COc1ccc(C(C)(C)c2csc(NC(=O)c3ccc(CN4CCNCC4C)cc3)n2)cc1` (centres unmarked) [Example B026, N-(4-(2-(4-methoxyphenyl)propan-2-yl)thiazol-2-yl)-4-((2-methylpiperazin-1-yl)methyl)benzamide]: 127 nM; for `C#C[C@@](C)(c1ccc(F)cc1)c1csc(NC(=O)c2c(F)cc(N3CCC(N)C3)cc2F)n1` (stereo in doubt) [Example B091, 4-(3-aminopyrrolidin-1-yl)-2,6-difluoro-N-(4-(2-(4-fluorophenyl)but-3-yn-2-yl)thiazol-2-yl)benzamide]: 65 nM. The molecule `C#CC(C)(c1ccc(Br)cc1)c1csc(NC(=O)[C@H]2C[C@H](CO)C2)n1` (mixture of isomers) [Example D005, rac-(1r,3r)-N-(4-(2-(4-bromophenyl)but-3-yn-2-yl)thiazol-2-yl)-3-(hydroxymethyl)cyclobutanecarboxamide] registered an IC50 under setting [1] of 98 nM. `C#C[C@@](C)(c1ccc(F)cc1)c1csc(NC(=O)c2ccc(N3CCNCC3CO)cc2)n1` (stereo in doubt) [Example B071, N-[4-[1-(4-fluorophenyl)-1-methyl-prop-2-ynyl]thiazol-2-yl]-4-[2-(hydroxymethyl)piperazin-1-yl]benzamide] registered an IC50 under setting [1] of 60 nM. For the molecule `CC(C)(c1ccc(Br)cc1)c1csc(NC(=O)NCc2cnc(NCCN3CCNCC3)nc2)n1` [Example A206, 1-(4-(2-(4-bromophenyl)propan-2-yl)thiazol-2-yl)-3-((2-((2-(piperazin-1-yl)ethyl)amino)pyrimidin-5-yl)methyl)urea], inhibition was half-maximal at 68 nM (IC50). `C#C[C@@](C)(c1csc(NC(=O)c2c(F)cc(N3CCNCC3)cc2F)n1)c1ccc(Cl)cc1F` (stereo in doubt) [Example C043, N-(4-(2-(4-chloro-2-fluorophenyl)but-3-yn-2-yl)thiazol-2-yl)-2,6-difluoro-4-(piperazin-1-yl)benzamide] came in with an IC50 under setting [1] of 285 nM. With `CC(c1ccc(C(=O)Nc2nc(C(C)(C)c3ccc(Br)cc3)cs2)cc1)N1CCNCC1` (centres unmarked) [Example B019, N-(4-(2-(4-bromophenyl)propan-2-yl)thiazol-2-yl)-4-(1-(piperazin-1-yl)ethyl)benzamide], the IC50 under setting [1] came to 98 nM. `COc1ccc(C(C)(C)c2csc(NC(=O)c3ccc(N4CCNCC4C)cc3)n2)cc1` (centres unmarked) [Example B014] showed a half-inhibitory concentration (IC50) under setting [1] of 300 nM.
